Laboratory results published in patent US9694027B2, “Pyrazole derivative and use thereof for medical purposes” (KISSEI PHARMACEUTICAL CO. LTD., priority 2012, dated 2017).

Experiments:
[1] = system: rat model of low-fiber diet-induced constipation; experiment: Rat model of low-fiber diet-induced constipation (Example 2)
Protocol: Compound 2 was weighed and was dissolved in distilled water at preparation concentrations of 3, 10 and 30 mg/mL as the free drug to prepare test compounds.
0.5% methylcellulose (0.5% MC) was used as a vehicle for preparation of lubiprostone. Lubiprostone was weighed and was suspended in 0.5% MC at preparation concentrations of 1, 3 and 10 mg/mL to prepare control substances.
Magnesium sulfate (MgSO4) (Wako pure chemical) was weighed and was dissolved in distilled water at a preparation concentrations of 200 mg/mL to prepare a positive control substance.
A soluble starch, sucrose and lactose monohydrate were weighed at a rate of 6:3:1 and were dissolved in distilled water which was approximately 80% of the amounts of preparation on heating, and then the mixture was added with distilled water to prepare 0.4 g/mL solution of mixed carbohydrate.
A low-fiber diet was prepared based on the literature (Kakino et al. BMC Complementary and Alternative Medicine 2010, 10: 68).
Rats were fed on the low-fiber diet for 1-2 weeks to induce constipation.
Compound 2 (3 mg/kg, 10 mg/kg or 30 mg/kg as free drug), lubiprostone (1 mg/kg, 3 mg/kg or 10 mg/kg), MgSO4 (2000 mg/kg) or a vehicle (distilled water: Control group 1, 0.5% MC: Control group 2) was administered orally at around 9 a.m. using a 1 mL glass syringe and a stomach tube. Then, 0.4 g/mL solution of mixed carbohydrate was administered orally at 2 mL/body to Control group 1 and the groups administered with Compound 2. Distilled water was administered to the normal feed group.
The sum of the fecal weights at the collection times was set as the fecal weight at 24 hours after the administration.
The statistical analysis was made by testing the uniformity of variance using Bartlett's method, and multiple comparison between Control group 1 and the group administered with Compound 2 or Control group 2 and the group administered with lubiprostone was made using Dunnett's method when variance was uniform respectively, and multiple comparison was made using Steel's method when variance was not uniform. In each case, significance level<5% was considered as significant difference.

healthy adult males = experiment: Multiple-dose study in healthy adult males (Example 4); type: in vivo, human
Protocol: Compound 2 at a dose of 2, 5, 10 or 20 mg (free drug equivalent), a placebo, or miglitol at a dose of 50 mg was repetitively administered orally once daily just immediately before breakfast on administration Days 1 and 13, and 3 times daily just immediately before every meal on administration Days 3 to 12 to healthy adult males. For the administration of Compound 2, tablets containing 1, 5 or 10 mg in free drug equivalent were used. The test period was set between administration Day 1 and Day 15. Frequencies of bowel movements were checked during consultation by a doctor, and the adverse events (gastrointestinal disorders) were defined when an abnormal finding (diarrhea or loose stool) was seen based on the stool form and the finding. In this regard, the frequencies of bowel movements in Table 8 show the daily means during fifteen days (time/day).

[2] = system: Loperamide-induced dog constipation model; experiment: Loperamide-induced dog constipation model (Example 1); type: in vivo; details: for Dry fecal weight within 24 hours after the administration / Wet fecal weight within 24 hours after the administration / Frequency of bowel movement within 24 hours after the administration: mean of 10 dogs; for Dry fecal weight within 24 hours after the administration: Control group 1.0, Normal group 47.1; for Wet fecal weight within 24 hours after the administration: Control group 2.8, Normal group 136.2; for Frequency of bowel movement within 24 hours after the administration: observation at 17, 21, 24 hours, Control group 0.2, Normal group 2.1
Protocol: Lubiprostone (TLC Pharma Chem) was weighed and was suspended in 0.5% methylcellulose at preparation concentrations of 0.05 and 0.35 mg/mL to prepare control substances.
Loperamide hydrochloride (Wako pure chemical) was weighed at 0.3, 0.5, 1.0, 2.0, 4.0 or 8.0 mg/kg for each animal and was filled into a gelatin capsule.
Loperamide hydrochloride which was filled into a gelatin capsule was orally administered to dogs (beagle, male, 13-14 months old, 10 dogs, Kitayama-labesu). The dosage was increased from 0.3 mg/kg, and was set at 2.0, 4.0 or 8.0 mg/kg based on the bowel movement condition of each dog.
Tests were performed as a full cross-over trial. More than 5-day washout period was provided between each test, and a recovery of stool form was identified, and then the next test was performed.
A gelatin capsule which was filled with loperamide hydrochloride was administered orally at around 9 a.m. on the first and second days in each test.
The stool form of feces was scored in seven categories based on Bristol Stool Form Scale. The collected feces were dried fully, and then the feces were weighed, and it was set as the dry fecal weight.

With `O=S(=O)([O-])[O-].[Mg+2]` [MgSO4, Magnesium sulfate] the Watery stool ([1]; 2000 mg/kg) was “watery stool was reported”, the “Fecal weight, effect of positive control” value ([1]; 2000 mg/kg oral) was “increase of the fecal weight was also shown” and the “Fecal weight within 24 hours after the administration” value ([1]; 2000 mg/kg oral, positive control, n=4, Control group 1 0.53) was 3.70 g.
With `OCCN1C[C@H](O)[C@@H](O)[C@H](O)[C@H]1CO` [Miglitol, miglitol, reference compound] the “Daily frequency of bowel movement after the administration, Mean” value (healthy adult males; 50 mg, once daily Days 1 and 13, 3 times daily Days 3 to 12, daily mean during fifteen days, 8 subjects, Placebo 1.0) was 1.0 time/day, the “Number of subject with gastrointestinal disorders: Abdominal pain” value (healthy adult males; multiple dose 50 mg, of 8 subjects, Placebo 0) was 0 and the “Number of subject with gastrointestinal disorders: Diarrhea” value (healthy adult males; multiple dose 50 mg, of 8 subjects, Placebo 3) was 2.
`CCCCC(F)(F)[C@@]1(O)CC[C@H]2[C@@H](CC(=O)[C@@H]2CCCCCCC(=O)O)O1` [lubiprostone, Lubiprostone, reference compound] was tested, and the “Fecal weight within 24 hours after the administration” value ([1]; 1 mg/kg oral in 0.5% MC, n=5, Control group 2 0.58) was 0.60 g, the “Fecal weight within 24 hours after the administration” value ([1]; 3 mg/kg oral in 0.5% MC, n=5, Control group 2 0.58) was 0.95 g and the “Fecal weight within 24 hours after the administration” value ([1]; 10 mg/kg oral in 0.5% MC, n=5, Control group 2 0.58) was 1.25 g. For the same compound, the “Fecal weight during 24 hours versus Control group” value ([1]; 10 mg/kg, versus Control group 2, significance level <5%) was “significantly higher than in each Control group”, the “Dose dependence of fecal weight during 24 hours after the administration” value ([1]; oral) was “dose-dependently increased” and the “Wet fecal weight, dry weight and frequency of bowel movements versus Control group” value ([2]; 0.1 mg/kg or more, significance level <5%) was “significantly higher than in Control group”. The “Dry fecal weight within 24 hours after the administration” value ([2]; 0.1 mg/kg oral) was 8.3 g, the “Wet fecal weight within 24 hours after the administration” value ([2]; 0.1 mg/kg oral) was 18.7 g and the “Frequency of bowel movement within 24 hours after the administration” value ([2]; 0.1 mg/kg oral) was 0.9 time. The “Dry fecal weight within 24 hours after the administration” value ([2]; 0.7 mg/kg oral) was 21.5 g, the “Wet fecal weight within 24 hours after the administration” value ([2]; 0.7 mg/kg oral) was 55.4 g and the “Frequency of bowel movement within 24 hours after the administration” value ([2]; 0.7 mg/kg oral) was 1.0 time. The “Increases of loose stool and diarrhea” value ([2]; all doses of this test) was “not observed” and the “Dose dependence of wet fecal weight, dry weight and frequency of bowel movements” value ([2]; within 24 hours after oral administration) was “dose-dependently increased”.
